Test results: the supplement of paper PMC9663587

What was measured:
[1] = compound: CC(=O)O[C@H]1C(=O)[C@@]2(C)[C@H]([C@H](OC(=O)c3ccccc3)[C@]3(O)C[C@H](OC(=O)[C@H](O)[C@@H](NC(=O)c4ccccc4)c4ccccc4)C(C)=C1C3(C)C)[C@]1(OC(C)=O)CO[C@@H]1C[C@@H]2O [Paclitaxel]
[2] = compound: CC(C)NC[C@@H](C(=O)N1CCN(c2ncnc3c2[C@H](C)C[C@H]3O)CC1)c1ccc(Cl)cc1 [Ipatasertib/GDC0068]
[3] = compound: CCNC(=O)c1noc(-c2cc(C(C)C)c(O)cc2O)c1-c1ccc(CN2CCOCC2)cc1 [Luminespib/NVP-AUY922]
[4] = compound: CN(C)C/C=C/C(=O)Nc1ccc(O[C@@H]2CCC[C@@H](Nc3ncc(Cl)c(-c4c[nH]c5ccccc45)n3)C2)cc1 [BSJ-01-175]
[5] = compound: CN(C)CC[C@H](CSc1ccccc1)Nc1ccc(S(=O)(=O)NC(=O)c2ccc(N3CCN(Cc4ccccc4-c4ccc(Cl)cc4)CC3)cc2)cc1[N+](=O)[O-] [ABT-737]
[6] = compound: T1, CN1CC[C@H](c2c(O)cc(O)c3c(=O)cc(-c4ccccc4Cl)oc23)[C@H](O)C1 [Flavopiridol]
[7] = compound: COc1cccc2c1C(=O)c1c(O)c3c(c(O)c1C2=O)C[C@@](O)(C(=O)CO)C[C@@H]3O[C@H]1C[C@H](N)[C@H](O)[C@H](C)O1 [Doxorubicin]
[8] = compound: Cc1nc(-c2cn3c(n2)-c2ccc(-c4cnn(C(C)(C)C(N)=O)c4)cc2OCC3)n(C(C)C)n1 [Taselisib/GDC0032]
[9] = compound: O=C(c1cc(Cc2n[nH]c(=O)c3ccccc23)ccc1F)N1CCN(C(=O)C2CC2)CC1 [Olaparib/AZD2281]
[10] = compound: C=CC(=O)Nc1ccc(C(=O)Nc2[nH]nc3c2CN(C(=O)N[C@H](CN(C)C)c2ccccc2)C3(C)C)cc1 [YKL-5-124]; experiment: GR value, 72 h; higher = faster growth (1 = untreated, <0 = killing);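 further: breast cancer and non-malignant breast epithelial lines, nine half-log doses, viable cells counted by Hoechst and LIVE/DEAD dye imaging versus time-zero plates and DMSO controls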
[11] = compound: CC(=O)c1c(C)c2cnc(Nc3ccc(N4CCN(CCOCCOCCOCCNC(=O)COc5cccc6c5C(=O)N(C5CCC(=O)NC5=O)C6=O)CC4)cn3)nc2n(C2CCCC2)c1=O [BSJ-03-123]; experiment: as above
[12] = compound: CC(=O)c1c(C)c2cnc(Nc3ccc(N4CCNCC4)cn3)nc2n(C2CCCC2)c1=O; experiment: as above
[13] = compound: CCN1CCN(Cc2ccc(Nc3ncc(F)c(-c4cc(F)c5nc(C)n(C(C)C)c5c4)n3)nc2)CC1; experiment: as above
[14] = compound: CCc1cnn2c(NCc3ccc[n+]([O-])c3)cc(N3CCCC[C@H]3CCO)nc12; experiment: as above
[15] = compound: CN(C)C(=O)c1cc2cnc(Nc3ccc(N4CCNCC4)cn3)nc2n1C1CCCC1 [LEE011/Ribociclib]; experiment: as above
[16] = compound: CN(C)C/C=C/C(=O)Nc1ccc(C(=O)N2CCC[C@@H](Nc3ncc(Cl)c(-c4c[nH]c5ccccc45)n3)C2)cc1 [THZ531]; experiment: as above
[17] = compound: T1, Flavopiridol; experiment: as above
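Wherever GR50, 72 h is given: breast cancer and non-malignant breast epithelial cell lines, Deep Dye Drop or Dye Drop imaging, nine half-log doses, GR normalized to time-zero plates and DMSO-only controls.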

Q: Which “GR50, 72 h” value [1] does the source give for MCF7 here?
A: 0.00138 µM

Q: And the “GR50, 72 h” value [2]?
A: 1.3 µM

Q: And the “GR50, 72 h” value [3]?
A: 0.00871 µM

Q: And the “GR50, 72 h” value [4]?
A: 0.006 µM

Q: And the “GR50, 72 h” value [5]?
A: > 10 µM

Q: And the “GR50, 72 h” value [6]?
A: 0.0847 µM

Q: And the “GR50, 72 h” value [7]?
A: 0.0161 µM

Q: And the “GR50, 72 h” value [8]?
A: 0.00836 µM

Q: And the “GR50, 72 h” value [9]?
A: > 10 µM

Q: And the GR value ([10]; 0.001 µM)?
A: 0.557 GR

Q: And the GR value ([10]; 0.003162 µM)?
A: 0.403 GR

Q: And the GR value ([10]; 0.01 µM)?
A: 0.316 GR

Q: What about the GR value ([10]; 0.03162 µM) of the same cell line?
A: 0.266 GR

Q: What about the GR value ([10]; 0.1 µM) of the same cell line?
A: 0.18 GR

Q: And the GR value ([10]; 0.3162 µM)?
A: 0.0831 GR

Q: And the GR value ([10]; 1 µM)?
A: 0.131 GR

Q: And the GR value ([10]; 3.162 µM)?
A: 0.0763 GR

Q: What about the GR value ([10]; 10 µM) of the same cell line?
A: -0.269 GR

Q: What about the GR value ([11]; 0.001 µM) of the same cell line?
A: 0.928 GR

Q: And the GR value ([11]; 0.003162 µM)?
A: 0.899 GR

Q: What about the GR value ([11]; 0.01 µM) of the same cell line?
A: 0.858 GR

Q: And the GR value ([11]; 0.03162 µM)?
A: 0.784 GR

Q: And the GR value ([11]; 0.1 µM)?
A: 0.789 GR

Q: What about the GR value ([11]; 0.3162 µM) of the same cell line?
A: 0.727 GR

Q: And the GR value ([11]; 1 µM)?
A: 0.604 GR

Q: What about the GR value ([11]; 3.162 µM) of the same cell line?
A: 0.544 GR

Q: And the GR value ([11]; 10 µM)?
A: -0.327 GR

Q: What about the GR value ([12]; 0.0003162 µM) of the same cell line?
A: 1.04 GR

Q: And the GR value ([12]; 0.001 µM)?
A: 1.02 GR

Q: What about the GR value ([12]; 0.003162 µM) of the same cell line?
A: 0.962 GR

Q: What about the GR value ([12]; 0.01 µM) of the same cell line?
A: 0.85 GR

Q: What about the GR value ([12]; 0.03162 µM) of the same cell line?
A: 0.626 GR

Q: And the GR value ([12]; 0.1 µM)?
A: 0.476 GR

Q: And the GR value ([12]; 0.3162 µM)?
A: 0.355 GR

Q: And the GR value ([12]; 1 µM)?
A: 0.297 GR

Q: And the GR value ([12]; 3.162 µM)?
A: 0.254 GR

Q: What about the GR value ([13]; 0.001 µM) of the same cell line?
A: 0.893 GR

Q: And the GR value ([13]; 0.003162 µM)?
A: 0.789 GR

Q: What about the GR value ([13]; 0.01 µM) of the same cell line?
A: 0.512 GR

Q: What about the GR value ([13]; 0.03162 µM) of the same cell line?
A: 0.349 GR

Q: And the GR value ([13]; 0.1 µM)?
A: 0.236 GR

Q: And the GR value ([13]; 0.3162 µM)?
A: 0.235 GR

Q: And the GR value ([13]; 1 µM)?
A: 0.0993 GR

Q: And the GR value ([13]; 3.162 µM)?
A: -0.189 GR

Q: What about the GR value ([13]; 10 µM) of the same cell line?
A: -0.268 GR

Q: And the GR value ([14]; 0.0001 µM)?
A: 1.02 GR

Q: What about the GR value ([14]; 0.0003162 µM) of the same cell line?
A: 0.997 GR

Q: What about the GR value ([14]; 0.001 µM) of the same cell line?
A: 0.979 GR

Q: And the GR value ([14]; 0.003162 µM)?
A: 0.967 GR

Q: What about the GR value ([14]; 0.01 µM) of the same cell line?
A: 0.3 GR

Q: And the GR value ([14]; 0.03162 µM)?
A: -0.247 GR

Q: What about the GR value ([14]; 0.1 µM) of the same cell line?
A: -0.276 GR

Q: What about the GR value ([14]; 0.3162 µM) of the same cell line?
A: -0.241 GR

Q: What about the GR value ([14]; 1 µM) of the same cell line?
A: -0.255 GR

Q: And the GR value ([15]; 0.001 µM)?
A: 0.87 GR

Q: And the GR value ([15]; 0.003162 µM)?
A: 0.786 GR

Q: What about the GR value ([15]; 0.01 µM) of the same cell line?
A: 0.682 GR

Q: And the GR value ([15]; 0.03162 µM)?
A: 0.651 GR

Q: What about the GR value ([15]; 0.1 µM) of the same cell line?
A: 0.53 GR

Q: And the GR value ([15]; 0.3162 µM)?
A: 0.414 GR

Q: What about the GR value ([15]; 1 µM) of the same cell line?
A: 0.407 GR

Q: And the GR value ([15]; 3.162 µM)?
A: 0.275 GR

Q: And the GR value ([15]; 10 µM)?
A: 0.295 GR

Q: And the GR value ([16]; 0.0001 µM)?
A: 0.957 GR

Q: And the GR value ([16]; 0.0003162 µM)?
A: 1.06 GR

Q: What about the GR value ([16]; 0.001 µM) of the same cell line?
A: 0.957 GR

Q: And the GR value ([16]; 0.003162 µM)?
A: 1.02 GR

Q: What about the GR value ([16]; 0.01 µM) of the same cell line?
A: 1.08 GR

Q: And the GR value ([16]; 0.03162 µM)?
A: 0.827 GR

Q: What about the GR value ([16]; 0.1 µM) of the same cell line?
A: 0.225 GR

Q: What about the GR value ([16]; 0.3162 µM) of the same cell line?
A: -0.0791 GR

Q: What about the GR value ([16]; 1 µM) of the same cell line?
A: -0.391 GR

Q: And the GR value ([17]; 0.0001 µM)?
A: 1.08 GR

Q: And the GR value ([17]; 0.0003162 µM)?
A: 0.929 GR

Q: What about the GR value ([17]; 0.001 µM) of the same cell line?
A: 0.872 GR

Q: What about the GR value ([17]; 0.003162 µM) of the same cell line?
A: 0.964 GR

Q: And the GR value ([17]; 0.01 µM)?
A: 0.873 GR

Q: And the GR value ([17]; 0.03162 µM)?
A: 0.834 GR

Q: What about the GR value ([17]; 0.1 µM) of the same cell line?
A: 0.424 GR

Q: What about the GR value ([17]; 0.3162 µM) of the same cell line?
A: -0.258 GR

Q: What about the GR value ([17]; 1 µM) of the same cell line?
A: -0.272 GR
